Data as given in patent US20260364124A1, “ANTI-C. DIFFICILE SMALL MOLECULE METABOLITES FROM DIET AND GUT MICROBIOME” (The Children's Medical Center Corporation, priority 2023, published 2026).

System: C. difficile M7404
Assay: In vitro polydatin bioactivation and C. difficile antagonism by conditioned (spent) media of B. uniformis AgshD
Assay type: cell-based, Clostridioides difficile
Details: polydatin 500 μM, 1/2-diluted, C. difficile M7404 growth 12 h (FIG. 5A)
Protocol: FIGS. 5A and 5B show microbiome-mediated polyphenol aglycone liberation. […] Step 2: Spent media was filter-sterilized. Step 3: C. difficile was grown in spent media from either vehicle or polydatin (top).
Generation of Bacteroides gene deletion mutants: Clean deletion mutants were created by allelic replacement whereby Bacteroides uniformis ATCC 8492 gshD (BACUNI_00919)was deleted. A modified pKNOCK-bla-ermGb suicide vector, pKNOCK-bla-ermGb_pheS*, that was previously engineered with a counter-selection system mediated by a variant phenylalanyl-tRNA synthetase (PheSA303G), lethal in the presence of 4-chloro-phenylalanine was leveraged. To generate deletion constructs, 1 kb regions flanking the genomic region-of-interest were amplified by PCR (Platinum SuperFi PCR Master Mix), purified, and cloned into the pKNOCK-bla-ermGb_pheS* plasmid in a three-piece ligation reaction. To mobilize resulting plasmids into Bacteroides, a triparental mating strategy was implemented. Overnight cultures of Bacteroides grown in BSG were diluted 50-fold into fresh pre-reduced BSG and grown to early exponential phase (OD600 ~0.1). The recipient strain was centrifuged at 4,000 rpm for 5 minutes and resuspended in 200 μL of 1× PBS. One-day-old E. coliDH5α lambda pir donor strain and E. coliDH5α helper strain with pRK 231 were scrapped from LB agar plates into 200 μL of 1× PBS. […]

SMILES: OC[C@H]1O[C@@H](Oc2cc(O)cc(/C=C/c3ccc(O)cc3)c2)[C@H](O)[C@@H](O)[C@@H]1O [polydatin]
- anti-C. difficile activity of conditioned media from B. uniformis gshD mutant grown with polydatin: ablated in B. uniformis AgshD
